For one assay, the system named is CRTC3 KO mice. Put plainly: Tube dominance test, CRTC3 KO mice housed with WT mice. In kind it is in vivo, mouse. The method, then:
(§1) The apparatus for the tube dominance test was made of a transparent plastic tube with a length of 30 cm and an inner diameter of 2.5 cm. To allow the mice to adapt to passing through the inside of the tube, the respective mice were trained to pass across the tube alternately on both sides for two or three consecutive days. During the training period, care was taken to ensure that the mice passed through the tube as naturally as possible without causing stress. This test was performed after identifying that all mice could freely pass through the tube without stress.
During the dominance test period, a total of 2 mice, one at each end of the tube, were placed to meet in the middle of the tube. In a case where one mouse pushed the other mouse out of the tube, one (1) winning point was earned. The test was repeated three times. […] For each test, win or loss was determined by winning points. […]
First, starting at 1 month of age, the CRTC3 KO mice and the WT mice were housed in one group and raised together for 2 months. […] To determine changes in ranking of the mice in the group, social dominance ranking was evaluated by a tube dominance test daily for 15 days starting at 3 months of age. The respective mice in the group were tested in turn, and dominance ranking of the mice in the group was determined based on their winning points. […]

The test system of another assay is C57BL/6 mice. Briefly: Tube dominance test, lowest-ranked mouse in C57BL/6 mouse group. The note with it: lowest-ranked C57BL/6 mouse, intracerebroventricular via osmotic pump. It counts as in vivo. The method, then: as §1
During the dominance test period, a total of 2 mice, one at each end of the tube, were placed to meet in the middle of the tube. In a case where one mouse pushed the other mouse out of the tube, one (1) winning point was earned. The test was repeated three times. For example, in a case where one mouse earned 2 or 3 winning points, the mouse was considered a winner and the other mouse was considered a loser. For the mice housed in the same cage, the tube test was performed on three mice in turn to determine social dominance ranking. For example, for mouse no. 1, the tube test was performed with mouse nos. 2 and 3. In a case where mouse no. 1 wins both mice, it is ranked first. Meanwhile, in a case where mouse no. 2 loses to mouse no. 1 and wins mouse no. 3, it is ranked second. In the two tests, mouse no. 3 is ranked third since it loses to both mice. For each test, win or loss was determined by winning points.
First, starting at 1 month of age, the CRTC3 KO mice and the WT mice were housed in one group and raised together for 2 months. This allowed social ranking to be naturally formed among the mice in the same group. To determine changes in ranking of the mice in the group, social dominance ranking was evaluated by a tube dominance test daily for 15 days starting at 3 months of age. The respective mice in the group were tested in turn, and dominance ranking of the mice in the group was determined based on their winning points. […]

A further assay has as its system wild-type rats. Briefly: Brain fMRI, resting-state functional connectivity (rsFC) in wild-type rats. In kind it is in vivo, rat. Conditions: SD rats, vs PBS group. The method, then:
To identify which regions of the brain are affected by administration of AREG-EGF, fMRI was performed on wild-type rats injected with AREG-EGF. The rats having received PBS as a control and the rats having received AREG-EGF were imaged with fMRI one month later, in which interaction signals between various regions in the brain were checked. Specifically, the rats, which are SD (Spraque Dawley) rat species, were eight, 5- to 6-week-old male rats purchased from Orient Bio. AREG-EGF was administered to the rats by intracerebroventricular injection (ICV) on Weeks 6 to 7 after the purchase, and fMRI imaging was performed 21 days after the administration. The fMRI imaging was performed in such a way that first imaging was performed on an anesthetized rat under normal conditions (pre-state), and then fMRI re-imaging was performed on the same rat by placing cotton soaked in the urine of another rat, which it had never encountered, so that the rat being imaged can sniff the cotton (post-state). For rodents, social responses such as social identification occur through urine marking done by the other individuals. Thus, urine from an unfamiliar rat was used to elicit social responses. For specific methods of administering AREG-EGF and performing MRI analysis, see Experimental Examples 2.1 and 3. […]

Turning to “AREG-EGF: Peptide of the EGF domain of amphiregulin, SEQ ID NO: 13, from Peptron (KKNPCNAEFQNFCIHGECKYIEHLEAVTCKCQQEYFGERCGEK; AREG-EGF Peptide)”, the “cages in which changes (increase) in social dominance ranking were observed after administration” value in the assay on CRTC3 KO mice (CRTC3 KO mice with low ranking, housed with WT mice, intracerebroventricular via osmotic pump) was found to be 50%. Besides, in the assay with CRTC3 KO mice (CRTC3 KO mice, ICV osmotic pump), the “winning points after vs before administration” value was “changes in winning points and increases in tube test ranking”. Besides, in the assay with C57BL/6 mice, the “cages in which ranking of the lowest-ranked mouse increased after administration” value is on record as 80%. In the assay on wild-type rats (ICV osmotic pump, fMRI 21 days after), the “rsFC between PFC and PC (average z-transformed correlation coefficient)” value is listed as “significantly high activity”. Further, the “rsFC seed-correlation spatial map, seed Cg1/2 (24b′/24a′)” value with wild-type rats (ICV) is reported as “significantly enhanced region was observed in PC”.
With “AREG-HB: Peptide of the heparin-binding domain of amphiregulin, SEQ ID NO: 14, from Peptron; control (SVRVEQVVKPPQNKTESENTSDKPKRKKKGGKNGKNRRNRK; AREG-HB Peptide) [reference compound]”, the “cages in which ranking of the lowest-ranked mouse increased after administration” value in the assay with C57BL/6 mice was 10%.
On to “mEGF: Recombinant mouse EGF from R&D Systems, SEQ ID NO: 12; control (NSYPGCPSSYDGYCLNGGVCMHIESLDSYTCNCVIGYSGDRCQTRDLRWWELR; Mouse EGF Protein; listed as Mus musculus) [reference compound]”, for which the “cages in which ranking of the lowest-ranked mouse increased after administration” value in the assay with C57BL/6 mice is 0%.
